Data taken from paper PMC8292763, “Mechanism of BIP-4 mediated inhibition of InsP3Kinase-A” (Bioscience Reports, 2021).

What was measured:
[1] = target: T1, InsP3Kinase-A (Homo sapiens, UniProt P23677); experiment: coupled PK/LDH assay with Lineweaver-Burk; thermal shift +[…] °C on wt; format: biochemical; parameters: gene ITPKA; full-length, tag-less
[2] = target: T2, InsP3Kinase-A (Homo sapiens, UniProt P23677, K264Q); experiment: activity of purified mutant with and without BIP-[…] to […]); format: biochemical
T2 construct: gene ITPKA; full-length
T2 sequence (P23677 whole entry K264Q): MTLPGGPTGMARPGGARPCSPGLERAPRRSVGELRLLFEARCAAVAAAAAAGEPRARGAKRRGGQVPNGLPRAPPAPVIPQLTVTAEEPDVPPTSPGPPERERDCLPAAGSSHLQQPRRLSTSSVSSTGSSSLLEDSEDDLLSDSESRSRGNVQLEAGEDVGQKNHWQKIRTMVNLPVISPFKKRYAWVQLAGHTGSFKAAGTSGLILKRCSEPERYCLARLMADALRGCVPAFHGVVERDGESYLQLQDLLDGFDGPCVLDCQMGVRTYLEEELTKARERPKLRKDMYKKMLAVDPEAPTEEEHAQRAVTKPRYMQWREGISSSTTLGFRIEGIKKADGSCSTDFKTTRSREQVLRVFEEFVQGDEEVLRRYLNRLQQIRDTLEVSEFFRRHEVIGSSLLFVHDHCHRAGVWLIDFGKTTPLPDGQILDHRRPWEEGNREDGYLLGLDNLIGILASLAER

[3] = target: T1, InsP3Kinase-A; experiment: biochemical; parameters: gene ITPKA; full-length GST-InsP3Kinase-A; conditions: ADP-Glo, 5 uM compound, normalized to positive control
Protocol: For the inhibitor screening, the compounds were diluted in dimethylsulfoxide (DMSO, Sigma), and a final compound concentration of 5 µM was applied to each well. Each measurement was performed in triplicates. As controls, a positive control (enzyme solution with InsP3Kinase and without compounds, but with DMSO), a negative control (enzyme buffer without InsP3Kinase), and an inhibitor control (quercetin and BIP-4) were applied. In each well, there was a final buffer concentration of 20 mM HEPES pH 7.5, 5 mM MgCl2, 30 mM KCl, 1 mM DTT, 0.5 mM ATP, and an enzyme concentration between 20 nM and 55 nM was applied. […] Then, 10 µl of ADP-Glo reagent was added (depleting remaining ATP and stopping InsP3Kinase enzymatic reaction) and incubated for 20 min at room temperature (RT). […] For luminescent measurement, a TECAN infinite 200 plate reader was used with an integration time of 1000 ms at a temperature of 30°C. For this screen, all measurements were performed in triplicates, three-times using the ADP Glo assay.

[4] = target: T1, InsP3Kinase-A; experiment: biochemical; parameters: gene ITPKA; full-length GST-InsP3Kinase-A; conditions: ADP-Glo, 5 uM compound, normalized to positive control; remark: listed apart in the source
Protocol: For the inhibitor screening, the compounds were diluted in dimethylsulfoxide (DMSO, Sigma), and a final compound concentration of 5 µM was applied to each well. Each measurement was performed in triplicates. […] In each well, there was a final buffer concentration of 20 mM HEPES pH 7.5, 5 mM MgCl2, 30 mM KCl, 1 mM DTT, 0.5 mM ATP, and an enzyme concentration between 20 nM and 55 nM was applied. […] Then, 10 µl of ADP-Glo reagent was added (depleting remaining ATP and stopping InsP3Kinase enzymatic reaction) and incubated for 20 min at room temperature (RT). Next, 10 µl kinase detection reagent (converting remaining ADP to ATP and containing luciferase, which uses ATP as substrate) was added, and incubation was continued for 15 min at RT. For luminescent measurement, a TECAN infinite 200 plate reader was used with an integration time of 1000 ms at a temperature of 30°C. For this screen, all measurements were performed in triplicates, three-times using the ADP Glo assay.

T1 sequence (P23677 whole entry): as the sequence (P23677 whole entry K264Q) above, with Q264K counted along it

Row | Structure (SMILES) | inhibition at 5 µM [3] [%] | further results
1 | Cc1nn(-c2ccc([N+](=O)[O-])cc2)c(C)c1N1C(=O)c2cc([N+](=O)[O-])cc3cc([N+](=O)[O-])cc(c23)C1=O [BIP-4, 2-[3,5-dimethyl-1-(4-nitrophenyl)-1H-pyrazol-4-yl]-5,8-dinitro-1H-benzo[de]isoquinoline-1,3(2H)-dione] |  | Ki [1]: 437 nM; Enzyme activity + BIP4 in % [2]: 18.797 % enzyme activity with BIP-4
2 | Cc1ccc(N2C(=O)c3cc([N+](=O)[O-])cc4cc([N+](=O)[O-])cc(c34)C2=O)c(C)c1 [compound 19, 19] | 36.2 | 
3 | CCOc1ccc(N2C(=O)c3cc([N+](=O)[O-])cc4cc([N+](=O)[O-])cc(c34)C2=O)cc1 [compound 27, 27] | 31.4 | 
4 | O=C1c2cc([N+](=O)[O-])cc3cc([N+](=O)[O-])cc(c23)C(=O)N1c1ccccc1Cl [compound 28, 28] | 19.7 | 
5 | O=C1c2cc([N+](=O)[O-])cc3cc([N+](=O)[O-])cc(c23)C(=O)N1c1ccc(Br)cn1 [compound 78, 78] |  | inhibition at 5 µM [4]: 1.6%

Further lines, with some results ahead:

Row | inhibition at 5 µM [3] [%] | Structure (SMILES) | further results
6 | 33.4 | CNS(=O)(=O)c1ccc(N2C(=O)c3cc([N+](=O)[O-])cc4cc([N+](=O)[O-])cc(c34)C2=O)cc1 [compound 31, 31] | 
7 | 41.6 | CCN(CC)S(=O)(=O)c1ccc(N2C(=O)c3cc([N+](=O)[O-])cc4cc([N+](=O)[O-])cc(c34)C2=O)cc1 [compound 33, 33] | 
